Experimental data published in patent publication US8222290B2, “Substituted N-phenyl-bipyrrolidine ureas and therapeutic use thereof” (Sanofi, priority 2007, dated 2012).
Counter-ions that a name gives are not always drawn.

These compounds were tested against T1, rhesus H3 receptor (Macaca mulatta, UniProt Q865E1) (assay: Rhesus H3 [3H]-Methylhistamine radioligand binding assay (SPA)). Conditions: [3H]-Methylhistamine 2 nM, rhesus H3 membranes, Cheng-Prusoff.
T1 construct: rhesus monkey (Macacca Mulatta) 445 amino acid H3 receptor; (Genbank #AY231164); expressed in transfected cells; host or cells: Flp-In T-REx 293 Cell Line (Invitrogen), pcDNA5/FRT/TO, induced with tetracycline; membranes
T1 sequence (Q865E1 1-445): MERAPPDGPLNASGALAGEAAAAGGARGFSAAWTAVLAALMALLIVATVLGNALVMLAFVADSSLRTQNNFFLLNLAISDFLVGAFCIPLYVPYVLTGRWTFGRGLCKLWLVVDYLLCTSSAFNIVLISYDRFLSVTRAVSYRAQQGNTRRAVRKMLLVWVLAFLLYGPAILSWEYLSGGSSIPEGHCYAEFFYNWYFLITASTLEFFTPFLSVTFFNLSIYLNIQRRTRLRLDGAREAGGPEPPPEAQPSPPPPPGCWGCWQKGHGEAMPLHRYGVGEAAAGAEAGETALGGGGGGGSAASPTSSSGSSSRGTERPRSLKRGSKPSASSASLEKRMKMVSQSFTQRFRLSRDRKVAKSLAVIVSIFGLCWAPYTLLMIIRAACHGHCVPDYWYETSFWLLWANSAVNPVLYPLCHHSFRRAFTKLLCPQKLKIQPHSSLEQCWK
Parameters: species or system rhesus monkey (Macacca Mulatta)
Description: Rhesus H3 membranes were prepared from the Flp-In T-REx 293 Cell Line (Invitrogen) stably transfected with pcDNA5/FRT/TO (Invitrogen) containing the rhesus monkey (Macacca Mulatta) 445 amino acid H3 receptor. (Genbank #AY231164). Stably transfected cultures were amplified in tissue culture flasks by standard tissue culture methods and induced to express rhesus H3 by exposure to 500 ng/ml tetracycline (Cellgro) for 24 hours. After induction, cells were dissociated from flasks utilizing Cell Stripper (Cellgro). Cells were centrifuged (1K×g, 5 min) and pellet frozen in an ethanol-dry ice bath to disrupt cell membranes. Frozen cell pellet was re-suspended in 5 mM HEPES (pH 7.4, Invitrogen) at 10 ml/1000 cm2 of harvested cells. The cell suspension was drawn through an 18 gauge needle (2-3×) followed by a 23 gauge needle (2-3×) to further disrupt cell membranes. The cell suspension was centrifuged (40K×g, 30 min). Cell membrane pellet was re-suspended in 5 mM HEPES (pH 7.4, Invitrogen) at a final protein concentration of 10 mg/ml. Rhesus H3 membranes were stored under liquid nitrogen prior to use in [3H]-Methylhistamine and GTPγS radioligand binding assays.
Rhesus H3 radioligand binding assay was performed using rhesus H3 receptor membranes (prepared as described above), [3H]-Methylhistamine (Perkin Elmer) and WGA SPA beads (wheat germ agglutinin scintillation proximity assay) beads (Amersham). The assay was performed in 96-well Opti-Plates (Packard). Each reaction contained 50 μl rhesus H3 membranes (20-30 μg total protein), 50 μl WGA SPA beads (0.1 μg) and 50 μl of 83Ci/mmol [^3H]-Methylhistamine (final concentration 2 nM) and 50 μl of tested compound. The compounds of this invention and/or vehicle were diluted with binding buffer from 10 mM DMSO stocks. Assay plates were sealed with TopSeal (Perkin Elmer) and mixed on shaker (25° C., 1 hour). Assay plates were read on TopCount scintillation counter (Packard). Results were analyzed by Hill transformation and Ki values were determined by Cheng-Prusoff equation.

Ki [µM]	SMILES
0.0105	Cc1cc(N2CCC(N3CCCC3C)C2)ccc1NC(=O)N1CCN(C)CC1 (stereo not shown) [Example 17, 4-Methyl-piperazine-1-carboxylic acid [2-methyl-4-(2-methyl-[1,3′]bipyrrolidinyl-1′-yl)-phenyl]-amide trifluoroacetate]
0.0077	CC1CCCN1C1CCN(c2ccc(NC(=O)Nc3cccc(C#N)c3)cc2)C1 (stereo not shown) [Example 7, 1-(3-Cyano-phenyl)-3-[4-(2-methyl-[1,3′]bipyrrolidinyl-1′-yl)-phenyl]-urea trifluoroacetate]
0.0084	Cc1cc(NC(=O)NCc2cccs2)ccc1N1CCC(N2CCCC2C)C1 (stereo not shown) [Example 11, 1-[3-Methyl-4-(2-methyl-[1,3′]bipyrrolidinyl-1′-yl)-phenyl]-3-thiophen-2-ylmethyl-urea trifluoroacetate]
0.0111	CC1CCCN1C1CCN(c2ccc(NC(=O)N3Cc4ccccc4C3)cc2)C1 (stereo not shown) [Example 6, 1,3-Dihydro-isoindole-2-carboxylic acid [4-(2-methyl-[1,3′]bipyrrolidinyl-1′-yl)-phenyl]-amide trifluoroacetate]
0.008	Cc1cc(NC(=O)N2Cc3ccccc3C2)ccc1N1CCC(N2CCCC2C)C1 (stereo not shown) [Example 21, 1,3-Dihydro-isoindole-2-carboxylic acid [3-methyl-4-(2-methyl-[1,3′]bipyrrolidinyl-1′-yl)-phenyl]-amide trifluoroacetate]
0.029	Cc1cc(NC(=O)N2CCCCC2)ccc1N1CCC(N2CCCC2C)C1 (stereo not shown) [Example 24, Piperidine-1-carboxylic acid [3-methyl-4-(2-methyl-[1,3′]bipyrrolidinyl-1′-yl)-phenyl]-amide trifluoroacetate]
0.0181	CC1CCCN1C1CCN(c2ccc(NC(=O)NCc3cc(Cl)cc(Cl)c3)c(C(F)(F)F)c2)C1 (stereo not shown) [Example 25, 1-(3,5-Dichloro-benzyl)-3-[4-(2-methyl-[1,3′]bipyrrolidinyl-1′-yl)-2-trifluoromethyl-phenyl]-urea trifluoroacetate]
0.0112	Cc1cc(NC(=O)NC2CCCCC2)ccc1N1CCC(N2CCCC2C)C1 (stereo not shown) [Example 10, 1-Cyclohexyl-3-[3-methyl-4-(2-methyl-[1,3′]bipyrrolidinyl-1′-yl)-phenyl]-urea trifluoroacetate]
0.0108	Cc1cc(N2CCC(N3CCCC3C)C2)ccc1NC(=O)N1Cc2ccccc2C1 (stereo not shown) [Example 18, 1,3-Dihydro-isoindole-2-carboxylic acid [2-methyl-4-(2-methyl-[1,3′]bipyrrolidinyl-1′-yl)-phenyl]-amide trifluoroacetate]
0.002	CC1CCCN1C1CCN(c2ccc(NC(=O)NCc3cccs3)cc2)C1 (stereo not shown) [Example 8, 1-[4-(2-Methyl-[1,3′]bipyrrolidinyl-1′-yl)-phenyl]-3-thiophen-2-ylmethyl-urea trifluoroacetate]
0.0106	CC1CCCN1C1CCN(c2ccc(NC(=O)N3CCN(c4ccccc4)CC3)cc2)C1 (stereo not shown) [Example 4, 4-Phenyl-piperazine-1-carboxylic acid [4-(2-methyl-[1,3′]bipyrrolidinyl-1′-yl)-phenyl]-amide trifluoroacetate]
0.006	CC1CCCN1C1CCN(c2ccc(NC(=O)N3CCCCC3)cc2)C1 (stereo not shown) [Example 1, Piperidine-1-carboxylic acid [4-(2-methyl-[1,3′]bipyrrolidinyl-1′-yl)-phenyl]-amide trifluoroacetate]
0.0127	Cc1cc(NC(=O)N2CCN(C)CC2)ccc1N1CCC(N2CCCC2C)C1 (stereo not shown) [Example 20, 4-Methyl-piperazine-1-carboxylic acid [3-methyl-4-(2-methyl-[1,3′]bipyrrolidinyl-1′-yl)-phenyl]-amide trifluoroacetate]
0.0355	CC(=O)N(C)C1CCN(C(=O)Nc2ccc(N3CCC(N4CCCC4C)C3)cc2)C1 (stereo not shown) [Example 14, 3-(Acetyl-methyl-amino)-pyrrolidine-1-carboxylic acid [4-(2-methyl-[1,3′]bipyrrolidinyl-1′-yl)-phenyl]-amide trifluoroacetate]
0.0046	Cc1cc(N2CCC(N3CCCC3C)C2)ccc1NC(=O)NC1CCCCC1 (stereo not shown) [Example 16, 1-Cyclohexyl-3-[2-methyl-4-(2-methyl-[1,3′]bipyrrolidinyl-1′-yl)-phenyl]-urea trifluoroacetate]
0.0191	CC1CCCN1C1CCN(c2ccc(NC(=O)Nc3cc(Cl)cc(Cl)c3)cc2)C1 (stereo not shown) [Example 12, 1-(3,5-Dichloro-phenyl)-3-[4-(2-methyl-[1,3′]bipyrrolidinyl-1′-yl)-phenyl]-urea trifluoroacetate]
0.0041	CC1CCCN1C1CCN(c2ccc(NC(=O)NC3CCCCC3)cc2)C1 (stereo not shown) [Example 3, 1-Cyclohexyl-3-[4-(2-methyl-[1,3′]bipyrrolidinyl-1′-yl)-phenyl]-urea trifluoroacetate]
0.0289	Cc1cc(NC(=O)NCc2cc(Cl)cc(Cl)c2)ccc1N1CCC(N2CCCC2C)C1 (stereo not shown) [Example 9, 1-(3,5-Dichloro-benzyl)-3-[3-methyl-4-(2-methyl-[1,3′]bipyrrolidinyl-1′-yl)-phenyl]-urea trifluoroacetate]
0.0341	CC(=O)N1CCN(C(=O)Nc2ccc(N3CCC(N4CCCC4C)C3)cc2)CC1 (stereo not shown) [Example 13, 4-Acetyl-piperazine-1-carboxylic acid [4-(2-methyl-[1,3′]bipyrrolidinyl-1′-yl)-phenyl]-amide trifluoroacetate]
0.0897	CC(=O)N(C)C1CCN(C(=O)Nc2ccc(N3CCC(N4CCCC4C)C3)c(C)c2)C1 (stereo not shown) [Example 2, 3-(Acetyl-methyl-amino)-pyrrolidine-1-carboxylic acid [3-methyl-4-(2-methyl-[1,3′]bipyrrolidinyl-1′-yl)-phenyl]-amide trifluoroacetate]
0.043	Cc1cc(NC(=O)Nc2cc(Cl)cc(Cl)c2)ccc1N1CCC(N2CCCC2C)C1 (stereo not shown) [Example 19, 1-(3,5-Dichloro-phenyl)-3-[3-methyl-4-(2-methyl-[1,3′]bipyrrolidinyl-1′-yl)-phenyl]-urea trifluoroacetate]
0.0063	Cc1cc(NC(=O)Nc2cccc(C#N)c2)ccc1N1CCC(N2CCCC2C)C1 (stereo not shown) [Example 23, 1-(3-Cyano-phenyl)-3-[3-methyl-4-(2-methyl-[1,3′]bipyrrolidinyl-1′-yl)-phenyl]-urea trifluoroacetate]
0.023	CC(=O)N1CCN(C(=O)Nc2ccc(N3CCC(N4CCCC4C)C3)c(C)c2)CC1 (stereo not shown) [Example 22, 4-Acetyl-piperazine-1-carboxylic acid [3-methyl-4-(2-methyl-[1,3′]bipyrrolidinyl-1′-yl)-phenyl]-amide trifluoroacetate]

SMILES	Ki [µM]
CC1CCCN1C1CCN(c2ccc(NC(=O)N3CCN(C)CC3)cc2)C1 (stereo not shown) [Example 5, 4-Methyl-piperazine-1-carboxylic acid [4-(2-methyl-[1,3′]bipyrrolidinyl-1′-yl)-phenyl]-amide trifluoroacetate]	0.0257
Cc1cc(N2CCC(N3CCCC3C)C2)ccc1NC(=O)Nc1cc(Cl)cc(Cl)c1 (stereo not shown) [Example 15, 1-(3,5-Dichloro-phenyl)-3-[2-methyl-4-(2-methyl-[1,3′]bipyrrolidinyl-1′-yl)-phenyl]-urea trifluoroacetate]	0.0222
